US20050064011A1, “Implantable or insertable medical devices containing phenolic compound for inhibition of restenosis” (priority 2003, published 2005)

Test system: coronary arteries of juvenile domestic swine
Experiment: Stent implantation in porcine coronary artery model, morphometric analysis after 28 days
Assay type: in vivo
Conditions: BHT in copolymer stent coating
Excerpt: The following are placed in the coronary arteries of juvenile domestic swine: (a) oversized bare metal stents, (b) EtO-sterilized, copolymer-coated, BHT-free stents, (c) electron-beam-sterilized, copolymer-coated, BHT-free stents, (d) electron-beam-sterilized, stents with coating containing 5% BHT and 95% copolymer, and (e) electron beam-sterilized, stents with coating containing 10% BHT and 90% copolymer. After 28 days, the stents are harvested from the animals and an examination of morphometric % restenosis and neointimal thickening area was conducted. Morphometric analysis is performed on one specimen from each stented segment in a blinded manner. Morphometry is completed using a PC based digital planimetry system. Morphometric % restenosis is determined by neointimal area÷internal elastic lamina (IEL) area×100; while neointimal area is determined by internal elastic lamina (IEL)−injured luminal area. The results are presented in the table to follow: Statistical methods are as follows: Data are presented as mean±S.D. Comparisons between the control (bare stent) and treated stents were made using unpaired t-test. Improvement in morphometic % restenosis and neointimal area, relative to bare stents, was […] considered to be statistically significant for values of p≦0.05.

## Cc1cc(C(C)(C)C)c(O)c(C(C)(C)C)c1 [BHT, butylated hydroxytoluene]
  stent biocompatibility: enhances stent biocompatibility
